Assay results reported in patent publication US20200113181A1, “HERBICIDAL COMPOUNDS” (SYNGENTA PARTICIPATIONS AG, priority 2016, published 2020).

How the values were obtained:
Type in all cases: in vivo
[1] = system: Alopecurus myosuroides (ALOMY); experiment: Glasshouse herbicide test, pre- and post-emergence, Alopecurus myosuroides; conditions: 250 g/h, evaluated after 13 days; for ALOMY POST, percentage damage caused to the plant (five point scale): post-emergence; for ALOMY PRE, percentage damage caused to the plant (five point scale): pre-emergence
Procedure: (§1) Seeds of a variety of test species are sown in standard soil in pots (Lolium perenne (LOLPE), Setaria faberi (SETFA), Alopecurus myosuroides (ALOMY), Echinochloa crus-galli (ECHCG), Avena fatua (AVEFA)). After cultivation for one day (pre-emergence) or after 8 days cultivation (post-emergence) under controlled conditions in a glasshouse (at 24/16° C., day/night; 14 hours light; 65% humidity), the plants are sprayed with an aqueous spray solution derived from the formulation of the technical active ingredient in acetone/water (50:50) solution containing 0.5% Tween 20 (polyoxyethelyene sorbitan monolaurate, CAS RN 9005-64-5). Compounds are applied at […]. The test plants are then grown in a glasshouse under controlled conditions in a glasshouse (at 24/16° C., day/night; 14 hours light; 65% humidity) and watered twice daily. After 13 days for pre and post-emergence, the test is evaluated for the percentage damage caused to the plant. The biological activities are shown in the following table on a five point scale (5=80-100%; 4=60-79%; 3=40-59%; 2=20-39%; 1=0-19%).

Setaria faberi (SETFA) = experiment: Glasshouse herbicide test, pre- and post-emergence, Setaria faberi; conditions: 250 g/h, evaluated after 13 days; for SETFA POST, percentage damage caused to the plant (five point scale): post-emergence; for SETFA PRE, percentage damage caused to the plant (five point scale): pre-emergence
Procedure: as §1

Avena fatua (AVEFA) = experiment: Glasshouse herbicide test, pre- and post-emergence, Avena fatua; conditions: 250 g/h, evaluated after 13 days; for AVEFA POST, percentage damage caused to the plant (five point scale): post-emergence; for AVEFA PRE, percentage damage caused to the plant (five point scale): pre-emergence
Procedure: as §1

Lolium perenne (LOLPE) = experiment: Glasshouse herbicide test, pre- and post-emergence, Lolium perenne; conditions: 250 g/h, evaluated after 13 days; for LOLPE POST, percentage damage caused to the plant (five point scale): post-emergence; for LOLPE PRE, percentage damage caused to the plant (five point scale): pre-emergence
Procedure: as §1

[2] = system: Echinochloa crus-galli (ECHCG); experiment: Glasshouse herbicide test, pre- and post-emergence, Echinochloa crus-galli; conditions: 250 g/h, evaluated after 13 days; for ECHCG POST, percentage damage caused to the plant (five point scale): post-emergence; for ECHCG PRE, percentage damage caused to the plant (five point scale): pre-emergence
Procedure: as §1

SMILES | ALOMY POST, percentage damage caused to the plant (five point scale) [1] | ALOMY PRE, percentage damage caused to the plant (five point scale) [1] | SETFA POST, percentage damage caused to the plant (five point scale) (Setaria faberi (SETFA)) | SETFA PRE, percentage damage caused to the plant (five point scale) (Setaria faberi (SETFA)) | AVEFA POST, percentage damage caused to the plant (five point scale) (Avena fatua (AVEFA)) | AVEFA PRE, percentage damage caused to the plant (five point scale) (Avena fatua (AVEFA)) | LOLPE POST, percentage damage caused to the plant (five point scale) (Lolium perenne (LOLPE)) | LOLPE PRE, percentage damage caused to the plant (five point scale) (Lolium perenne (LOLPE)) | ECHCG POST, percentage damage caused to the plant (five point scale) [2] | ECHCG PRE, percentage damage caused to the plant (five point scale) [2]
CC#Cc1ccc(C2C(=O)[C@@H]3[C@H](C2=O)[C@H]2CC[C@@H]3O2)c(OCCC)c1 (mixture of isomers) [Compound 1.31] | 5 (5=80-100%) | 5 (5=80-100%) | 5 (5=80-100%) | 5 (5=80-100%) | 5 (5=80-100%) | 5 (5=80-100%) | 5 (5=80-100%) | 5 (5=80-100%) | 5 (5=80-100%) | 5 (5=80-100%)
CC#Cc1ccc(C2=C(OC(=O)C(C)(C)C)[C@@H]3[C@H](C2=O)[C@@H]2O[C@H]3C[C@@H]2COC)c(OC)c1 (racemic) [Compound 1.26] | 5 (5=80-100%) | 5 (5=80-100%) | 5 (5=80-100%) | 5 (5=80-100%) | 5 (5=80-100%) | 5 (5=80-100%) | 5 (5=80-100%) | 5 (5=80-100%) | 5 (5=80-100%) | 5 (5=80-100%)
CC#Cc1ccc(C2C(=O)[C@@H]3[C@@H]4O[C@@H](C[C@@H]4C)[C@@H]3C2=O)c(OC)c1 (mixture of isomers) [Compound 1.3] | 5 (5=80-100%) | 5 (5=80-100%) | 5 (5=80-100%) | 5 (5=80-100%) | 5 (5=80-100%) | 5 (5=80-100%) | 5 (5=80-100%) | 5 (5=80-100%) | 5 (5=80-100%) | 5 (5=80-100%)
CC#Cc1ccc(C2C(=O)[C@H]3[C@@H]4CC[C@@](C)(O4)[C@H]3C2=O)c(OC)c1 (mixture of isomers) [Compound 1.5] | 5 (5=80-100%) | 5 (5=80-100%) | 5 (5=80-100%) | 5 (5=80-100%) | 5 (5=80-100%) | 5 (5=80-100%) | 5 (5=80-100%) | 5 (5=80-100%) | 5 (5=80-100%) | 5 (5=80-100%)
CC#Cc1ccc(C2C(=O)[C@H]3[C@@H]4CC[C@@](COC)(O4)[C@H]3C2=O)c(OC)c1 (mixture of isomers) [Compound 1.12] | 5 (5=80-100%) | 5 (5=80-100%) | 5 (5=80-100%) | 5 (5=80-100%) | 5 (5=80-100%) | 5 (5=80-100%) | 5 (5=80-100%) | 5 (5=80-100%) | 5 (5=80-100%) | 5 (5=80-100%)
CC#Cc1ccc(C2C(=O)[C@@H]3[C@@H]4O[C@@H](C[C@H]4CC)[C@@H]3C2=O)c(OC)c1 (some centres unmarked) [Compound 1.24] | – | 5 (5=80-100%) | – | 5 (5=80-100%) | 5 (5=80-100%) | – | – | 5 (5=80-100%) | – | 5 (5=80-100%)
CC#Cc1ccc(C2C(=O)[C@@H]3[C@H](C2=O)[C@@H]2O[C@H]3C[C@]2(C)OC)c(OC)c1 (mixture of isomers) [Compound 1.33] | 5 (5=80-100%) | 5 (5=80-100%) | 5 (5=80-100%) | 5 (5=80-100%) | 5 (5=80-100%) | 5 (5=80-100%) | 5 (5=80-100%) | 5 (5=80-100%) | 5 (5=80-100%) | 5 (5=80-100%)
CC#Cc1ccc(C2C(=O)[C@H]3[C@@H]4CC[C@@](C)(O4)[C@H]3C2=O)c(OC)c1 (some centres unmarked) [Compound 1.22] | 5 (5=80-100%) | 5 (5=80-100%) | 5 (5=80-100%) | 5 (5=80-100%) | 5 (5=80-100%) | 5 (5=80-100%) | 5 (5=80-100%) | 5 (5=80-100%) | 5 (5=80-100%) | 5 (5=80-100%)
CC#Cc1ccc(C2C(=O)[C@H]3[C@@H]4C=C[C@@](C)(O4)[C@H]3C2=O)c(OC)c1 (mixture of isomers) [Compound 1.6] | 2 (2=20-39%) | 5 (5=80-100%) | 5 (5=80-100%) | 5 (5=80-100%) | 5 (5=80-100%) | 3 (3=40-59%) | 5 (5=80-100%) | 5 (5=80-100%) | 5 (5=80-100%) | 5 (5=80-100%)
CC#Cc1ccc(C2C(=O)[C@@H]3[C@H](C2=O)[C@H]2CC[C@@H]3O2)c(OCCOC)c1 (mixture of isomers) [Compound 1.32] | 4 (4=60-79%) | 1 (1=0-19%) | 5 (5=80-100%) | 3 (3=40-59%) | 5 (5=80-100%) | 4 (4=60-79%) | 5 (5=80-100%) | 4 (4=60-79%) | 5 (5=80-100%) | 3 (3=40-59%)
CC#Cc1ccc(C2C(=O)[C@@H]3[C@H](C2=O)[C@H]2C=C(C)[C@@H]3O2)c(OC)c1 (mixture of isomers) [Compound 1.16] | 5 (5=80-100%) | 5 (5=80-100%) | 5 (5=80-100%) | 5 (5=80-100%) | 5 (5=80-100%) | 5 (5=80-100%) | 5 (5=80-100%) | 5 (5=80-100%) | 5 (5=80-100%) | 5 (5=80-100%)
CC#Cc1ccc(C2=C(OC(=O)C(C)C)[C@@H]3[C@H](C2=O)[C@H]2CC[C@@H]3O2)c(OC)c1 (racemic) [Compound 1.1, isobutyric acid 4-(2-methoxy-4-prop-1-ynyl-phenyl)-5-oxo-10-oxa-tricyclo[5.2.1.0^2,6]dec-3-en-3-yl ester] | – | – | 5 (5=80-100%) | 5 (5=80-100%) | 5 (5=80-100%) | 5 (5=80-100%) | 5 (5=80-100%) | 5 (5=80-100%) | 5 (5=80-100%) | 5 (5=80-100%)
